From patent US7560484B2 (priority 2000, dated 2009)

What was measured:
[1] = system: influenza HA vaccine (influenza virus A/PR/8/34); set-up: species or system BALB/c mice; conditions: mouse, in vivo, po
influenza HA vaccine = conditions: mouse, in vivo
measles-rubella vaccine = format: in vivo, mice; conditions: blood; vaccine nasal twice at 3-week intervals; adjuvant oral before and after first inoculation
Mycoplasma = format: in vivo, mice
[2] = system: pertussis-diphtheria-tetanus combined vaccine; set-up: species or system mice; conditions: mouse, in vivo, po
rotavirus vaccine = format: in vivo, mice; conditions: blood

For `CCCCC[C@H](O)[C@H](O)/C=C/[C@H](O)CCCCCCCC(=O)O` [9R,12R,13S-trihydroxy-10E-octadecenoic acid], the “titer of anti-influenza virus IgA antibody in nasal irrigation liquids” value [1] was “strongly enhanced” and the “titer of anti-influenza virus IgG1 antibody in nasal irrigation liquids” value [1] was “strongly enhanced”.
`CCCCC[C@H](O)[C@H](O)/C=C/[C@@H](O)CCCCCCCC(=O)O` [9S,12R,13S-trihydroxy-10E-octadecenoic acid] was tested, and the “titer of anti-influenza virus IgA antibody in nasal irrigation liquids” value [1] was “strongly enhanced” and the “titer of anti-influenza virus IgG1 antibody in nasal irrigation liquids” value [1] was “strongly enhanced”.
With `CCCCC[C@H](O)[C@@H](O)/C=C/[C@@H](O)CCCCCCCC(=O)O` [9S,12S,13S-trihydroxy-10E-octadecenoic acid] the “titer of anti-influenza vaccine IgE antibody in the bronchoalveolar irrigation liquid” value (influenza HA vaccine) was “significantly decreased”, the “titer of anti-influenza virus IgA antibody in nasal irrigation liquids” value [1] was “strongly enhanced” and the “titer of anti-influenza virus IgA antibody in the sera” value [1] was “significantly increased”. The “titer of anti-influenza virus IgG1 antibody in nasal irrigation liquids” value [1] was “strongly enhanced”, the “titer of anti-influenza virus IgG1 antibody in the sera” value [1] was “significantly increased” and the “ELISA titer of antibody produced for measles” value (measles-rubella vaccine) was 0.30. The “ELISA titer of antibody produced for rubella” value (measles-rubella vaccine) was 0.29, the “mice with lesions associated with Mycoplasma infection” value (Mycoplasma; mouse, in vivo, po) was 3 of 10 and the “average number of lesions” value (Mycoplasma; vaccine intranasal three times at 2-week intervals, adjuvant oral before and after first inoculation) was 178. For the same molecule, the “level of anti-DT-IgA antibody in the nasal irrigation liquid” value [2] was 11 ELISA units, the “level of anti-PT-IgA antibody in the nasal irrigation liquid” value [2] was 14 ELISA units and the “level of anti-TT-IgA antibody in the nasal irrigation liquid” value [2] was 11 ELISA units. The “level of anti-diphtheria toxoid (DT)-IgG antibody in the blood” value [2] was 70 ELISA units, the “level of anti-pertussis toxin (PT)-IgG antibody in the blood” value [2] was 442 ELISA units and the “level of anti-tetanus toxoid (TT)-IgG antibody in the blood” value [2] was 75 ELISA units.
In the case of `CCCCC[C@H](O)[C@@H](O)/C=C/[C@@H](O)CCCCCCCC(=O)OC` [methyl ester derivative, methyl 9S,12S,13S-trihydroxy-10E-octadecenoate], the “ELISA titer of antibody produced, vaccine inoculated orally” value (rotavirus vaccine; rotavirus vaccine inoculated orally) is reported as 0.27 and the “ELISA titer of antibody produced, nasal vaccine drop” value (rotavirus vaccine; rotavirus vaccine nasal twice at 3-week intervals, adjuvant oral before and after first inoculation) is reported as 0.38.
